Measured values as given in patent US20240041813A1, “VERY-LONG-CHAIN POLYUNSATURATED FATTY ACIDS, ELOVANOID HYDROXYLATED DERIVATIVES, AND METHODS OF USE” (priority 2020, published 2024).
Entries after “also recorded” stand apart in the source; their conditions may differ.

Columns and labels:
ACE-2 receptor = assay: ACE-2 protein abundance by Jess capillary western in human alveoli in culture; assay type: cell-based; details: effect dependent on addition of IL-1b
Excerpt: The Simple Protein platform Jess allows running a protein mixture in a capillary system that also serves as a probing matrix for the antibodies. This platform obviates the need to transfer the size-separated proteins onto a membrane with the consequent loss of sample. The sample amount that can be run in Jess is several times smaller than that required for Western blots. Therefore, high throughput is facilitated in cell cultures. The antibodies to this protein have been validated in our laboratory.
c.1.b. Protein abundance using Jess technology. The Simple Protein platform Jess allows running a protein mixture in a capillary electrophoretic system as a probing matrix for the antibodies (we refer to western blot as “Jess WB” here). This platform obviates the need to transfer the size-separated proteins onto a membrane with a potential loss of sample. The sample size run in Jess is several times smaller than that for classical WB. (400 ng protein/capillary column vs. 10 or more μg for classical WB). The proteins we assess will include ACE2, Furin, ADAM17, DPP4, TMPRSS2, protein surfactant D, and Cathepsin L. In addition, senescence and SASP proteins will also be analyzed. […]
ACE2 Protein abundance using Jess technology. […] Soluble protein concentration was determined by BCA assay (Thermo Fisher Scientific, Cat. 23225) and 0.4 μg used/reaction. […]

[1] = system: receptor-binding domain (RBD) of the SARS-CoV-2 spike; assay type: cell-based, human
injured rat cornea = assay: Rat cornea alkali burn: corneal RNA-seq, cytokine storm, NFkB/inflammation, senescence, integrin and protease genes; assay type: in vivo
Experimental: (§1) The rats were anesthetized by intraperitoneal injection of Ketamine (50-100 mg/kg) plus xylazine (5-10 mg/kg). A 4 mm diameter filter paper soaked in 1 N NaOH was placed on the central cornea of the right eye for 45 seconds, and then the eye was thoroughly washed with […] of saline. After injury, the rats were randomly divided into five treatment groups: vehicle; lipoxin A4 (LXA4) from Cayman Chemical (Ann Arbor, MI, USA); R,R Resolvin D6 isomer (RvD6i), R,R neuroprotection D (NPD1), and elovanoid (ELV)-N32. All lipid solutions were prepared at the final concentration of […] using PBS with the minimal contamination of ethanol by evaporating the ethanol and immediately dissolve the lipids in PBS, then vortex well for 2 min. Topical administration (20 μl) was done 3×/day for 14 days. The experiments were double-blinded with the lipid mediators coded during the whole experiments. At the end of the study, when all data was collected, the code was opened.
Injured corneas (n=5/condition) were harvested and homogenized with TRIzol (Thermo Fisher Scientific) on ice with a glass Dounce homogenizer. RNA sequencing was performed as described^14. Briefly, after mRNA extraction and determination of purity, 8 ng of total RNA was reverse transcribed, and total cDNAs were amplified using ISPCR primer, and the library was made with the Nextera XT DNA library preparation kit (Illumina, San Diego, CA, USA). The libraries were pooled with the same molarity and sequenced using the NextSeq 500/550 High Output Kit v2 (75 cycles, Illumina). After demultiplexing, RNA-seq data were aligned to the Rattus Norvegicus reference genome (.ensembl.org/pub/release-98/fasta/rattus_norvegicus/dna/) using the Subread package v2.0.1 alignment function39. The BAM files for sequencing data alignment were counted using featureCounts function of Subread tool^40 using the macOS Catalina. The raw count data were subjected to differential gene expression analysis using DESeq2 package for R^41 with the vehicle group as reference. The adjusted p-values were named as the false discover rate (FDR).

ACE2 = assay: Rat cornea alkali burn: ACE2 abundance by Jess capillary-based Western Blot; assay type: in vivo; details: rat cornea after alkali burn; eye drops 20 μl/eye, 3 times/day for 14 days; day 14
Excerpt: Sprague-Dawley rats (8-week-old male) were obtained from Charles River Laboratories (Wilmington, MA, USA) and kept at the Animal Care of the Neuroscience Center of Excellence, Louisiana State University Health (LSUH; New Orleans, LA, USA). All animals were handled in compliance with the guidelines of the ARVO Statement for the Use of Animals in Ophthalmic and Vision Research, and the experimental protocol was approved by the Institutional Animal Care and Use Committee (IACUC) at LSUH.
as §1
Briefly, samples were lysed with RIPA buffer containing a protease inhibitor cocktail (Sigma, Cat. P8340). Cell debris was removed after 10 min centrifugation at 16,000×g. Protein concentration was determined by BCA assay (Thermo Fisher Scientific, Cat. 23225) and 1 μg used/reaction. Fluorescent Master Mix was mixed with 40 mM DTT, and the mixture was added to each sample to provide a denaturing and reducing environment. Samples were heated at 95° C./5 min, and 3 μL of each sample were loaded. The 12-230 kDa cartridge (Protein Simple—#SM-W004) was used. Primary antibodies were diluted in antibody diluent 2 buffer (Protein Simple, #042-203) while the working solution of secondary antibodies was provided by the company (Protein Simple, #042-206). Then, the filled plate was spin-down for 10 min at 1,000×g to remove bubbles and plate, and capillaries were loaded into the Jess machine. For data analysis, the area of spectra that matched the molecular weight of the target protein was used. To reduce the coefficient variant, we analyzed the GAPDH for each capillary. The ratio of the targeted protein to GAPDH was used for statistical comparisons. For visualization, the artificial lanes generated from spectra volume was used.

[2] = rat cornea, RNA-seq 14 days after injury

## CC/C=C\CC(O)\C=C/C=C/C=C/C(O)C/C=C\C/C=C\CCCCCCCCCCCCC(=O)O [ELV-N32, (14Z,17Z,20R,21E,23E,25Z,27S,29Z)-20,27-dihydroxydo-triaconta-14,17,21,23,25,29-hexaenoic acid]
ACE-2 receptor
  expression of the ACE-2 receptor (protein abundance, Jess): downregulate
[1]
  RBD of the SARS-CoV-2 spike entrance / internalized RBD: diminishes
  RBD protein internalization (RBD located below the membrane line): decrease
Injured rat cornea; cornea injury model (FIG. 57)
  Furin expression: remarkably decreases
Injured rat cornea; [2]
  51 injury-upregulated genes (cytokines, SASP, NFkB inflammatory): most are inhibited
  Il6 and Vegfa expression: reduced
  integrin gene expression (Itga5 and Itgb 1): significantly decreased; also recorded: decrease
  transcriptomic profile in PCA plot relative to control cornea: nearest to the normal cornea
Injured rat cornea; rat cornea, RNA-seq normalized counts, 14 days after injury
  Cdkn2a gene expression (p16INK4a): decrease
ACE2
  ACE2 abundance (protein, normalized to GAPDH): decrease
